According to US8648116B2, “Derivatives of N-(arylamino) sulfonamides including polymorphs as inhibitors of MEK as well as compositions, methods of use and methods for preparing the same” (Ardea Biosciences, Inc., priority 2005, dated 2014):
Like-named read-outs stand apart in the source and are kept apart here. Marks after values point to notes of the source that are not given here.

Columns and labels:
[1] = Dynamic vapor sorption/desorption (DVS); format: physicochemical; details: Form A; 5% to 95% relative humidity
Protocol: Moisture sorption/desorption data were collected on a VTI SGA-100 Vapor Sorption Analyzer. Sorption and desorption data were collected over a range of 5% to 95% relative humidity (RH) at 10% RH intervals under a nitrogen purge. Samples were not dried prior to analysis. Equilibrium criteria used for analysis were less than 0.0100% weight change in 5 minutes, with a maximum equilibration time of 3 hours if the weight criterion was not met. Data were not corrected for the initial moisture content of the samples. Sodium chloride and polyvinypyrrolidine were used as calibration standards.

Colo205 tumor cells = test: ED50 in Colo205 xenografts (Example 94D); format: in vivo, nu/nu mice; details: Paclitaxel 30 mg/kg IV QODx5, Colo205 xenografts
From the text: Male nu/nu mice were implanted with Colo205 tumor cells. After 10 days animals were randomized by tumor size (range 126-256 mm^3) and treated with paclitaxel (IV, QODx5), vehicle or Compound A (PO, QDx14).

[2] = test system: human A375 melanoma xenografts
[3] = test system: COLO 205 human colon carcinoma xenografts; test: Activity against subcutaneous COLO 205 xenografts (Example 118)
Protocol: Dosing solutions of Compound A were prepared fresh daily by dissolving the required amount of compound in 100% Cremophor EL, and then diluting ten-fold with normal saline. Final dosing solution concentrations were 2.5, 5, 10, or 20 mg/mL, in order to provide respective doses of 25, 50, 100 or 200 mg/kg in a dosing volume of 10 mL/kg. Paclitaxel (Natural Pharmaceuticals, Inc.) was prepared fresh on each day of dosing in a vehicle consisting of 5% ethanol and 5% Cremophor EL in 90% D5W (5% EC vehicle).
Group 1 received the formulation vehicle (10% Cremophor EL in saline), and served as the tumor growth control group. Group 2 received the reference drug paclitaxel administered on its optimal schedule in nude mice (30 mg/kg i.v. qod×5). […] All doses were scaled to the weight of the animal (0.2 mL per 20 grams body weight).
Tumors were measured twice each week using calipers. […] Therefore endpoint tumor size of 800 mm^3 was used for analysis of tumor growth delay (TGD).
[formula] where b is the intercept and m is the slope of the line obtained by linear regression of a log-transformed tumor growth data set.

[4] = test system: Complete Freund's Adjuvant induced arthritis; test: Rat adjuvant arthritis inflammation assay; format: in vivo, rats; details: 10 mg/kg subcutaneous on days 1 and 4
Protocol: In the rat adjuvant induced arthritis model, Complete Freund's Adjuvant (CFA) is injected into the right hind paw of rats to induce pathologies similar to rheumatoid arthritis in humans. Compound A was administered orally for 5 consecutive days at 2, 6, and 20 mg/kg. Dexamethasone at 5 m g/kg was also administered orally for 5 days. Enbrel at 10 mg/kg was administered by subcutaneous injection on days 1 and 4. CFA was injected into the right hind paw one hour after the first dose on day 1. […] Polyarthritis was scored as the presence of swelling in front paws, tail, nose or ear.

A375 cells = test: Evaluation of cell cycle arrest (propidium iodide, flow cytometry); format: cell-based, human; details: 24 hr
Protocol: A375 cells were plated in 96-well microplates at 10,000 cells/200 μl/well. […] After another 24 hr, cells were trypsinized, fixed in 200 μl Prefer (Anatech, Battle Creek, Mich.), and stored at 4° C. overnight. Cells were then rinsed in PBS, permeabilized and stained in 0.1% Triton X-100, 200 μg/ml DNase-free RNase, and […] propidium iodide (Molecular Probes, Sunnyvale, Calif.), and analyzed on the Guava PCA-96 (Guava Technologies, Foster City, Calif.). Data were analyzed using ModFit LT (version 3.0, Verity, Topsham, Me.).

MDA pERK = MDA pERK ELISA; format: cell-based
[5] = Group 2: Paclitaxel 30 mg/kg iv qod×5
[6] = Group 2: Paclitaxel 30 mg/kg iv qod×5, n=9
[7] = Group 2, paclitaxel 30 mg/kg iv qod × 14 per the 39th table (qod×5), n=9

Q: For `COc1cc(F)c(F)c(Nc2ccc(I)cc2F)c1NS(=O)(=O)C1(C[C@H](O)CO)CC1` [listing 1 of 2 here], which “weight change in DVS” value [1] is on record?
A: negligible weight change

Q: Which results are given for `CC(=O)O[C@H]1C(=O)[C@@]2(C)[C@H]([C@H](OC(=O)c3ccccc3)[C@]3(O)C[C@H](OC(=O)[C@H](O)[C@@H](NC(=O)c4ccccc4)c4ccccc4)C(C)=C1C3(C)C)[C@]1(OC(C)=O)CO[C@@H]1C[C@@H]2O` [paclitaxel, reference compound]?
A: Day 15 Tumor Volume (Colo205 tumor cells): 113 ± 9.6 mm^3; % TGI (Colo205 tumor cells; Day 15): 104* %; Median TTE ([2]; Group 2, 30 mg/kg iv qod×5): 28.8 days; TGD ([2]; Group 2, 30 mg/kg iv qod×5): 26%; tumor regressions ([2]; Group 2, 30 mg/kg iv qod×5): No tumor regressions; % TGD [2, 5]: 26%; Median TTE [2, 5]: 28.8 days; T − C [2, 5]: 6.0 days; Regressions CR [2, 6]: 0; Regressions PR [2, 6]: 0; Regressions TFS [2, 6]: 0; PR responses ([3]; Group 2, 30 mg/kg i.v. qod×5): Five; MTV ([3]; Group 2, 30 mg/kg i.v. qod×5, Day 74): 143 mm^3; % TGD [3, 7]: 46%; MTV (n) Day 74 [3, 7]: 0 (3); Median TTE [3, 7]: 60.0 days; No of CR [3, 7]: 0; No of NTR (non-treatment-related deaths) [3, 7]: 2; No of PR [3, 7]: 1; No of TFS [3, 7]: 0; No of TR (treatment-related deaths) [3, 7]: 2; SS (statistical significance, logrank vs Group 1) [3, 7]: ns; T − C [3, 7]: 19.0 days

Q: With enbrel as the compound, how does the “animals without swelling in the tail (polyarthritis scoring)” value [4] read?
A: 3 of 6

Q: What about the “protection from front paw swelling (polyarthritis scoring)” value [4] of the same compound?
A: no animals were protected

Q: With `COc1cc(F)c(F)c(Nc2ccc(I)cc2F)c1NS(=O)(=O)C1(C[C@H](O)CO)CC1` [listing 2 of 2 here] as the compound, how does the “Phase % G1” value (A375 cells; 37 nM) read?
A: 74.3%

Q: And the “Phase % G2” value (A375 cells; 37 nM)?
A: 7.0%

Q: What about the “Phase % S” value (A375 cells; 37 nM) of the same compound?
A: 18.7%

Q: And the “Phase % G1” value (A375 cells; 111 nM)?
A: 84.7%

Q: And the “Phase % G2” value (A375 cells; 111 nM)?
A: 3.5%

Q: What about the “Phase % S” value (A375 cells; 111 nM) of the same compound?
A: 11.8%

Q: Which EC50 (MDA pERK) does the source give for `O=S(=O)(Nc1ccc(F)c(F)c1Nc1ccc(I)cc1F)C1CCNCC1` [Example 0561599] here?
A: 0.015 to 0.1 µM

Q: For `Cn1cc(-c2ccc(Nc3c(NS(=O)(=O)C4CC4)ccc(F)c3F)c(F)c2)cn1` [Example 0497620], which EC50 (MDA pERK) is on record?
A: > 0.2 µM

Q: With `Cn1cc(S(=O)(=O)Nc2ccc(F)c(F)c2Nc2ccc(I)cc2F)c(C(F)(F)F)n1` [Example 0621026] as the compound, how does the EC50 (MDA pERK) read?
A: 0.1 to 0.2 µM

Q: With `CN(C)CCNCCS(=O)(=O)Nc1ccc(F)c(F)c1Nc1ccc(I)cc1F` [Example 0621016] as the compound, how does the EC50 (MDA pERK) read?
A: 0.015 to 0.1 µM

Q: For `COC(=O)c1ccc(S(=O)(=O)Nc2ccc(F)c(F)c2Nc2ccc(I)cc2F)n1C` [Example 0561608], which EC50 (MDA pERK) is on record?
A: 0.015 to 0.1 µM

Q: With `O=S(=O)(Nc1ccc(F)c(F)c1Nc1ccc(-c2cccnc2)cc1F)C1CC1` [Example 0497689] as the compound, how does the EC50 (MDA pERK) read?
A: > 0.2 µM

Q: With `O=S(=O)(Nc1ccc(F)c(F)c1Nc1ccc(-c2ccncc2)cc1F)C1CC1` [Example 0497688] as the compound, how does the EC50 (MDA pERK) read?
A: > 0.2 µM
